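How tested: cells in 96-well plates exposed to compound for 48 hours at five concentrations. TGI denotes the concentration required for complete inhibition of growth.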

Common to all, as to assay: NCI-60 cell line screen, 48 h
For test [1], the system named is RXF 393 renal.
Test [2] deals with NCI-H23 lung.
For test [3], the system named is NCI-H226 lung.
The subject of test [4] is TK-10 renal.
Test [5] deals with SNB-78 CNS.
The test system of test [6] is RPMI-8226 leukemia.
Test [7] deals with HOP-62 NSCLC.
The test system of test [8] is M14 melanoma.
The subject of test [9] is A498 renal.
The test system of test [10] is SF-539 CNS.
For test [11], the system named is A549 NSCLC.
Test [12] has as its system SNB-75 CNS.
Test [13] deals with OVCAR-3 ovarian.
Test [14] deals with ACHN renal.
For test [15], the system named is K-562 leukemia.
For test [16], the system named is SW-620 colon.
Test [17] deals with SK-MEL-2 melanoma.
For test [18], the system named is SN12C renal.
Test [19] relates to UACC-257 melanoma.

Turning to `CNC(=O)CN(CC(N)=O)C(=O)NC`, the TGI in test [1], in test [2], in test [3], in test [4], in test [5] and in [6] was over 100 µM each time. For the same molecule, the TGI in test [7], in [8], in test [9], in [10], in test [11] and in [12] was over 100 µM throughout. For the same molecule, the TGI in test [13], in test [14], in test [15], in [16] and in test [17] was over 100 µM throughout.
Consider `COc1cc(CCCC(O)COc2cccc3c2C2(O)CCCCCC32)cc(OC)c1` (stereo not given), for which the TGI came out at 43.2 µM in test [1]; 32.6 µM in [2]; 33.9 µM in [3]; 28.1 µM in test [4]; 31.8 µM in test [18]; 43.3 µM in test [5]. Moreover, the TGI is 42 µM in [6]; 28.7 µM in [7]; 35.7 µM in test [8]; 34.1 µM in [9]; 28.1 µM in [10]; 30.8 µM in [11]. Moreover, the TGI in [12] was 30.2 µM; in test [19], 32.5 µM; in test [14], 29.4 µM; in test [15], 31.1 µM; in test [16], 31.6 µM; in test [17], 35.7 µM.
`O=S1c2ccc(Cl)cc2CC(SSC2Cc3cc(Cl)ccc3S(=O)c3ccccc32)c2ccccc21` (stereo not given): the TGI in test [1], in [2], in test [3], in test [4], in [18] and in [5] was over 100 µM in each case. For the same molecule, the TGI in test [6], in test [7], in [8], in test [10], in [11] and in test [12] was over 100 µM each time. The TGI in [13], in [19], in test [14], in [15], in test [16] and in test [17] was over 100 µM each time.
With `O=C1/C(=C/c2ccccc2)CCCC/C1=C\c1ccccc1`, the TGI was 59.5 µM in [1]; over 100 µM in [2]; over 100 µM in test [3]; over 100 µM in test [4]; over 100 µM in [18]; over 100 µM in test [5]. Moreover, the TGI in test [7], in [8], in [9], in test [10], in test [11] and in test [12] was over 100 µM each time. Moreover, the TGI in [13], in [19], in test [14], in test [16] and in test [17] was over 100 µM throughout.
